ChEMBL document CHEMBL5512637, “Development of Membrane-Targeting Fluorescent 2-Phenyl-1H-phenanthro[9,10-d]imidazole-Antimicrobial Peptide Mimic Conjugates against Methicillin-Resistant Staphylococcus aureus” (J Med Chem, 2024)
Activity calls are given as the source filed them. The rule behind the calls is not given here.

Columns and labels:
[1] = tested on: Staphylococcus aureus; experiment: Antibacterial activity against methicillin-resistant Staphylococcus aureus clinical isolate M-8 incubated for 16 to 18 hrs CLSI based by microbroth dilution assay; assay type: functional; conditions: time 16-18 hrs
[2] = tested on: Staphylococcus aureus; experiment: Antibacterial activity against methicillin-resistant Staphylococcus aureus clinical isolate M-3 incubated for 16 to 18 hrs CLSI based by microbroth dilution assay; assay type: functional; conditions: time 16-18 hrs
[3] = tested on: Staphylococcus aureus; experiment: Antibacterial activity against methicillin-resistant Staphylococcus aureus clinical isolate M-7 incubated for 16 to 18 hrs CLSI based by microbroth dilution assay; assay type: functional; conditions: time 16-18 hrs
[4] = tested on: Staphylococcus aureus; experiment: Antibacterial activity against methicillin-resistant Staphylococcus aureus clinical isolate M-2 incubated for 16 to 18 hrs CLSI based by microbroth dilution assay; assay type: functional; conditions: time 16-18 hrs
[5] = tested on: Escherichia coli; experiment: Antibacterial activity against Escherichia coli ATCC 25922 incubated for 16 to 18 hrs CLSI based by microbroth dilution assay; assay type: functional; conditions: time 16-18 hrs
[6] = tested on: Staphylococcus aureus; experiment: Antibacterial activity against methicillin-resistant Staphylococcus aureus clinical isolate M-6 incubated for 16 to 18 hrs CLSI based by microbroth dilution assay; assay type: functional; conditions: time 16-18 hrs
[7] = tested on: Staphylococcus aureus; experiment: Antibacterial activity against methicillin-resistant Staphylococcus aureus clinical isolate M-1 incubated for 16 to 18 hrs CLSI based by microbroth dilution assay; assay type: functional; conditions: time 16-18 hrs
[8] = tested on: Staphylococcus aureus; experiment: Antibacterial activity against methicillin-resistant Staphylococcus aureus clinical isolate M-4 incubated for 16 to 18 hrs CLSI based by microbroth dilution assay; assay type: functional; conditions: time 16-18 hrs
[9] = tested on: Staphylococcus aureus; experiment: Bactericidal activity against Staphylococcus aureus ATCC 29213 assessed as increase in fluorescence intensity at MIC incubated for 180 mins; assay type: functional, organism-based
[10] = tested on: Staphylococcus aureus; experiment: Antibacterial activity against Staphylococcus aureus ATCC 29213 incubated for 16 to 18 hrs CLSI based by microbroth dilution assay; assay type: functional; conditions: time 16-18 hrs
[11] = tested on: Staphylococcus aureus; experiment: Antibacterial activity against methicillin-resistant Staphylococcus aureus clinical isolate M-5 incubated for 16 to 18 hrs CLSI based by microbroth dilution assay; assay type: functional; conditions: time 16-18 hrs
[12] = tested on: Staphylococcus aureus; experiment: Antibacterial activity against methicillin-resistant Staphylococcus aureus clinical isolate M-9 incubated for 16 to 18 hrs CLSI based by microbroth dilution assay; assay type: functional; conditions: time 16-18 hrs
[13] = tested on: Staphylococcus aureus; experiment: Antibacterial activity against methicillin-resistant Staphylococcus aureus clinical isolate M-10 incubated for 16 to 18 hrs CLSI based by microbroth dilution assay; assay type: functional; conditions: time 16-18 hrs
[14] = tested on: Staphylococcus aureus; experiment: Bactericidal activity against Staphylococcus aureus ATCC 29213 at 8 times MIC incubated upto 8 hrs by time kill assay; assay type: functional, organism-based
[15] = Toxicity in KM mouse infected with methicillin-resistant Staphylococcus aureus clinical isolate M-4 assessed as histopathological abnormality in spleen at 5 mg/kg, sc measured after 24 hrs by H and E staining based analysis; assay type: organism-based; conditions: in vivo
[16] = Toxicity in KM mouse infected with methicillin-resistant Staphylococcus aureus clinical isolate M-4 assessed as histopathological abnormality in liver at 5 mg/kg, sc measured after 24 hrs by H and E staining based analysis; assay type: organism-based; conditions: in vivo
[17] = Toxicity in KM mouse infected with methicillin-resistant Staphylococcus aureus clinical isolate M-4 assessed as histopathological abnormality in lungs at 5 mg/kg, sc measured after 24 hrs by H and E staining based analysis; assay type: organism-based; conditions: in vivo
[18] = Toxicity in KM mouse infected with methicillin-resistant Staphylococcus aureus clinical isolate M-4 assessed as histopathological abnormality in heart at 5 mg/kg, sc measured after 24 hrs by H and E staining based analysis; assay type: organism-based; conditions: in vivo
[19] = tested on: Staphylococcus aureus; experiment: Antibacterial activity against methicillin-resistant Staphylococcus aureus clinical isolate M-4 infected in KM mouse assessed as survival rate of bacteria at 5 mg/kg, sc measured after 24 hrs relative to control; assay type: functional
[20] = tested on: Staphylococcus aureus; experiment: Bactericidal activity against methicillin-resistant Staphylococcus aureus clinical isolate M-4 at 8 times MIC incubated upto 8 hrs by time kill assay; assay type: functional, organism-based
[21] = Toxicity in KM mouse infected with methicillin-resistant Staphylococcus aureus clinical isolate M-4 assessed as histopathological abnormality in kidneys at 5 mg/kg, sc measured after 24 hrs by H and E staining based analysis; assay type: organism-based; conditions: in vivo
[22] = tested on: Staphylococcus aureus; experiment: Bactericidal activity against Staphylococcus aureus ATCC 29213 assessed as fluorescent signal at MIC incubated for 20 mins; assay type: functional, organism-based
[23] = Selectivity index, ratio of HC50 for sheep erythrocytes to MIC for Staphylococcus aureus ATCC 29213; assay type: toxicity; conditions: read-out: Selectivity Index
[24] = Hemolytic activity in sheep erythrocytes incubated for 1 hr by absorbance based assay; assay type: toxicity, cell-based, Ovis aries, Erythrocyte

## CN(C)c1ccc(-c2nc3c4ccccc4c4ccccc4c3n2CCCCBr)cc1
[1]
  MIC: > 64 µg/mL
[2]
  MIC: > 64 µg/mL
[3]
  MIC: > 64 µg/mL
[4]
  MIC: > 64 µg/mL
[5]
  MIC: > 64 µg/mL
[6]
  MIC: > 64 µg/mL
[7]
  MIC: > 64 µg/mL
[8]
  MIC: > 64 µg/mL
[9]
  Activity: inactive
[10]
  MIC: > 64 µg/mL
[11]
  MIC: > 64 µg/mL
[12]
  MIC: > 64 µg/mL
[13]
  MIC: > 64 µg/mL

## CN[C@H](CC(C)C)C(=O)N[C@H]1C(=O)N[C@@H](CC(N)=O)C(=O)N[C@H]2C(=O)N[C@H]3C(=O)N[C@H](C(=O)N[C@H](C(=O)O)c4cc(O)cc(O)c4-c4cc3ccc4O)[C@H](O)c3ccc(c(Cl)c3)Oc3cc2cc(c3O[C@@H]2O[C@H](CO)[C@@H](O)[C@H](O)[C@H]2O[C@H]2C[C@](C)(N)[C@H](O)[C@H](C)O2)Oc2ccc(cc2Cl)[C@H]1O [VANCOMYCIN]
[14]
  Activity: Active
[15]
  Activity: Non-Toxic
[16]
  Activity: Non-Toxic
[17]
  Activity: Non-Toxic
[18]
  Activity: Non-Toxic
[19]
  survival at 5 mg/kg: 2.15%
[20]
  Activity: Active
[21]
  Activity: Non-Toxic

## CCCCCNC(=O)C[N+](C)(C)CCCn1c(-c2ccc(N(C)C)cc2)nc2c3ccccc3c3ccccc3c21.[Br-]
[1]
  MIC: 8 µg/mL
[2]
  MIC: 8 µg/mL
[22]
  Activity: Active
[3]
  MIC: 4 µg/mL
[4]
  MIC: 8 µg/mL
[5]
  MIC: 64 µg/mL
[6]
  MIC: 8 µg/mL
[7]
  MIC: 8 µg/mL
[8]
  MIC: 4 µg/mL
[23]
  selectivity ratio: > 80
[10]
  MIC: 8 µg/mL
[11]
  MIC: 8 µg/mL
[12]
  MIC: 4 µg/mL
[24]
  HC50 at 1 h: > 640 µg/mL
[13]
  MIC: 8 µg/mL

## CN(C)c1ccc(-c2nc3c4ccccc4c4ccccc4c3n2CCC[N+](C)(C)CC(=O)N2CCSCC2)cc1.[Br-]
[1]
  MIC: 128 µg/mL
[2]
  MIC: 64 µg/mL
[3]
  MIC: 32 µg/mL
[4]
  MIC: 64 µg/mL
[5]
  MIC: > 128 µg/mL
[6]
  MIC: 64 µg/mL
[7]
  MIC: 64 µg/mL
[8]
  MIC: 64 µg/mL
[23]
  selectivity ratio: 5.6
[10]
  MIC: 64 µg/mL
[11]
  MIC: 64 µg/mL
[12]
  MIC: 64 µg/mL
[24]
  HC50 at 1 h: 357 µg/mL
[13]
  MIC: 64 µg/mL

## CC(C)CN(CC(C)C)C(=O)C[N+](C)(C)CCCCCn1c(-c2ccc(N(C)C)cc2)nc2c3ccccc3c3ccccc3c21.[Br-]
[1]
  MIC: 1 µg/mL
[2]
  MIC: 1 µg/mL
[3]
  MIC: 1 µg/mL
[4]
  MIC: 1 µg/mL
[5]
  MIC: > 128 µg/mL
[6]
  MIC: 1 µg/mL
[7]
  MIC: 1 µg/mL
[8]
  MIC: 1 µg/mL
[23]
  selectivity ratio: 247
[10]
  MIC: 1 µg/mL
[11]
  MIC: 2 µg/mL
[12]
  MIC: 1 µg/mL
[24]
  HC50 at 1 h: 247 µg/mL
[13]
  MIC: 2 µg/mL

## CCCCCCNC(=O)C[N+](C)(C)CCCCn1c(-c2ccc(N(C)C)cc2)nc2c3ccccc3c3ccccc3c21.[Br-]
[1]
  MIC: 1 µg/mL
[2]
  MIC: 2 µg/mL
[3]
  MIC: 1 µg/mL
[4]
  MIC: 2 µg/mL
[5]
  MIC: 32 µg/mL
[6]
  MIC: 2 µg/mL
[7]
  MIC: 2 µg/mL
[8]
  MIC: 2 µg/mL
[23]
  selectivity ratio: 176
[10]
  MIC: 2 µg/mL
[11]
  MIC: 2 µg/mL
[12]
  MIC: 1 µg/mL
[24]
  HC50 at 1 h: 353 µg/mL
[13]
  MIC: 2 µg/mL
